Data reported in ChEMBL document CHEMBL4265948, “A cardiac glycoside HTF-1 isolated from Helleborus thibetanus Franch displays potent in vitro anti-cancer activity via caspase-9, MAPK and PI3K-Akt-mTOR pathways” (Eur J Med Chem, 2018).
Active and inactive are the calls of the source. The rule behind the calls is not given here.

How the values were obtained:
HeLa [1] = assay: Cell cycle arrest in human HeLa cells assessed as accumulation at S phase at 100 nM after 24 hrs by propidium iodide staining based flow cytometry; assay type: functional
HeLa [2] = assay: Cytotoxicity activity against human HeLa cells after 24 hrs by MTT assay; assay type: functional, cell-based
HeLa [3] = assay: Cytotoxicity activity against human HeLa cells after 48 hrs by MTT assay; assay type: functional, cell-based
MCF7 [4] = assay: Cytotoxicity activity against human MCF7 cells after 24 hrs by MTT assay; assay type: functional, cell-based; details: MCF7, 24 h
MCF7 [5] = assay: Cytotoxicity activity against human MCF7 cells after 48 hrs by MTT assay; assay type: functional, cell-based; details: MCF7, 48 h
HepG2 [6] = assay: Cytotoxicity activity against human HepG2 cells after 24 hrs by MTT assay; assay type: functional, cell-based; details: HepG2, 24 h
HepG2 [7] = assay: Cytotoxicity activity against human HepG2 cells after 48 hrs by MTT assay; assay type: functional, cell-based; details: HepG2, 48 h
L02 = assay: Cytotoxicity activity against human LO2 cells after 24 to 48 hrs by MTT assay; assay type: cell-based
HeLa [8] = assay: Induction of morphological changes in human HeLa cells assessed as cell shrinkage at 200 to 500 nM after 24 hrs by bright field microscopic analysis; assay type: functional, cell-based
HeLa [9] = assay: Induction of morphological changes in human HeLa cells assessed as increase in floating round cells at 200 to 500 nM after 24 hrs by bright field microscopic analysis; assay type: functional, cell-based
HeLa [10] = assay: Induction of morphological changes in human HeLa cells assessed as impaired cell adhesion at 200 to 500 nM after 24 hrs by bright field microscopic analysis; assay type: functional, cell-based
HeLa [11] = assay: Induction of morphological changes in human HeLa cells assessed as wizened nucleus at 200 to 500 nM after 24 hrs by Hoechst 33342 staining based fluorescence microscopic analysis; assay type: functional, cell-based
HeLa [12] = assay: Induction of morphological changes in human HeLa cells assessed as DNA fragmentation at 200 to 500 nM after 24 hrs by Hoechst 33342 staining based fluorescence microscopic analysis; assay type: functional, cell-based
HeLa [13] = assay: Induction of morphological changes in human HeLa cells assessed as chromatin condensation at 200 to 500 nM after 24 hrs by Hoechst 33342 staining based fluorescence microscopic analysis; assay type: functional, cell-based
HeLa [14] = assay: Induction of morphological changes in human HeLa cells assessed as cell shrinkage at 200 to 500 nM after 24 hrs by scanning electron microscopic analysis; assay type: functional, cell-based
HeLa [15] = assay: Induction of morphological changes in human HeLa cells assessed as thinner microvilli at 200 to 500 nM after 24 hrs by scanning electron microscopic analysis; assay type: functional, cell-based
HeLa [16] = assay: Induction of morphological changes in human HeLa cells assessed as protrusions in cell membrane at 200 to 500 nM after 24 hrs by scanning electron microscopic analysis; assay type: functional, cell-based
HeLa [17] = assay: Induction of morphological changes in human HeLa cells assessed as cell membrane blebbing at 200 to 500 nM after 24 hrs by scanning electron microscopic analysis; assay type: functional, cell-based
HeLa [18] = assay: Induction of morphological changes in human HeLa cells assessed as formation of apoptotic bodies at 200 to 500 nM after 24 hrs by scanning electron microscopic analysis; assay type: functional, cell-based
HeLa [19] = assay: Induction of apoptosis in human HeLa cells assessed as viable cells at 100 nM after 24 hrs by Annexin-V-FITC/propidium iodide staining based flow cytometry (reference value: 85.8%); assay type: functional; details: read-out: Activity
HeLa [20] = assay: Induction of apoptosis in human HeLa cells assessed as early apoptotic cells at 100 nM after 24 hrs by Annexin-V-FITC/propidium iodide staining based flow cytometry (reference value: 3.08%); assay type: functional
HeLa [21] = assay: Induction of apoptosis in human HeLa cells assessed as late apoptotic cells at 100 nM after 24 hrs by Annexin-V-FITC/propidium iodide staining based flow cytometry (reference value: 11.1%); assay type: functional
HeLa [22] = assay: Induction of apoptosis in human HeLa cells assessed as necrotic cells at 100 nM after 24 hrs by Annexin-V-FITC/propidium iodide staining based flow cytometry (reference value: 0.031%); assay type: functional
HeLa [23] = assay: Induction of apoptosis in human HeLa cells assessed as viable cells at 200 nM after 24 hrs by Annexin-V-FITC/propidium iodide staining based flow cytometry (reference value: 85.8%); assay type: functional; details: read-out: Activity
HeLa [24] = assay: Induction of apoptosis in human HeLa cells assessed as early apoptotic cells at 200 nM after 24 hrs by Annexin-V-FITC/propidium iodide staining based flow cytometry (reference value: 3.08%); assay type: functional
HeLa [25] = assay: Induction of apoptosis in human HeLa cells assessed as late apoptotic cells at 200 nM after 24 hrs by Annexin-V-FITC/propidium iodide staining based flow cytometry (reference value: 11.1%); assay type: functional
HeLa [26] = assay: Induction of apoptosis in human HeLa cells assessed as necrotic cells at 200 nM after 24 hrs by Annexin-V-FITC/propidium iodide staining based flow cytometry (reference value: 0.031%); assay type: functional
HeLa [27] = assay: Induction of apoptosis in human HeLa cells assessed as viable cells at 500 nM after 24 hrs by Annexin-V-FITC/propidium iodide staining based flow cytometry (reference value: 85.8%); assay type: functional; details: read-out: Activity
HeLa [28] = assay: Induction of apoptosis in human HeLa cells assessed as early apoptotic cells at 500 nM after 24 hrs by Annexin-V-FITC/propidium iodide staining based flow cytometry (reference value: 3.08%); assay type: functional
HeLa [29] = assay: Induction of apoptosis in human HeLa cells assessed as late apoptotic cells at 500 nM after 24 hrs by Annexin-V-FITC/propidium iodide staining based flow cytometry (reference value: 11.1%); assay type: functional
HeLa [30] = assay: Induction of apoptosis in human HeLa cells assessed as necrotic cells at 500 nM after 24 hrs by Annexin-V-FITC/propidium iodide staining based flow cytometry (reference value: 0.031%); assay type: functional
HeLa [31] = assay: Cell cycle arrest in human HeLa cells assessed as accumulation at S phase at 200 nM after 24 hrs by propidium iodide staining based flow cytometry relative to control; assay type: functional
HeLa [32] = assay: Cell cycle arrest in human HeLa cells assessed as accumulation at sub-G1 phase at 200 nM after 24 hrs by propidium iodide staining based flow cytometry; assay type: functional
HeLa [33] = assay: Inhibition of colony formation in human HeLa cells at 50 nM after 24 hrs by crystal violet staining based microscopic analysis; assay type: functional, cell-based
HeLa [34] = assay: Inhibition of colony formation in human HeLa cells assessed as reduction in colony size at 50 nM after 24 hrs by crystal violet staining based microscopic analysis; assay type: functional, cell-based
HeLa [35] = assay: Antiproliferative activity against human HeLa cells assessed as inhibition of cell proliferation at 100 to 200 nM after 24 hrs by Ki-67/Hoechst 33342 staining based fluorescence microscopic analysis; assay type: functional
HeLa [36] = assay: Antiproliferative activity against human HeLa cells assessed as inhibition of cell proliferation at 100 to 200 nM after 24 hrs by Edu/Hoechst 33342 staining based fluorescence microscopic analysis; assay type: functional
HeLa [37] = assay: Antimigratory activity in human HeLa cells at 25 to 50 nM after 24 to 48 hrs by wound healing assay; assay type: functional, cell-based
HeLa [38] = assay: Antiinvasive activity in human HeLa cells at 50 nM after 48 hrs by crystal violet staining based microscopic analysis; assay type: functional, cell-based
HeLa [39] = assay: Induction of apoptosis in human HeLa cells assessed as cleaved caspase-3 expression at 50 to 200 nM after 24 hrs by Western blot analysis; assay type: functional, cell-based
HeLa [40] = assay: Induction of apoptosis in human HeLa cells assessed as cleaved caspase-9 expression at 50 to 200 nM after 24 hrs by Western blot analysis; assay type: functional, cell-based
HeLa [41] = assay: Induction of apoptosis in human HeLa cells assessed as cleaved caspase-7 expression at 50 to 200 nM after 24 hrs by Western blot analysis; assay type: functional, cell-based
HeLa [42] = assay: Induction of double strand breaks in human HeLa cells assessed as increase in phospho-gammaH2AX expression at 50 to 200 nM after 24 hrs by Western blot analysis; assay type: functional, cell-based
HeLa [43] = assay: Down regulation of FEN1 expression in human HeLa cells at 50 to 200 nM after 24 hrs by Western blot analysis; assay type: functional, cell-based
HeLa [44] = assay: Induction of apoptosis in human HeLa cells assessed as […] in cleaved PARP expression at 50 to 200 nM after 24 hrs by Western blot analysis; assay type: functional, cell-based
HeLa [45] = assay: Down regulation of survivin expression in human HeLa cells at 50 to 200 nM after 24 hrs by Western blot analysis; assay type: functional, cell-based
HeLa [46] = assay: Down regulation of Bcl2 expression in human HeLa cells at 50 to 200 nM after 24 hrs by Western blot analysis; assay type: functional, cell-based
[47] = molecular target: c-Jun N-terminal kinase, JNK (Homo sapiens) (UniProt P45983+P53779+P45984); assay: Activation of JNK phosphorylation in human HeLa cells after 24 hrs by Western blot analysis; assay type: cell-based
[48] = molecular target: Mitogen-activated protein kinase; ERK1/ERK2 (Homo sapiens) (UniProt P27361+P28482); assay: Inhibition of ERK1/2 phosphorylation in human HeLa cells at 50 to 200 nM after 24 hrs by Western blot analysis; assay type: cell-based
Chain of Mitogen-activated protein kinase; ERK1/ERK2 (Homo sapiens) (P27361 whole entry, looked up): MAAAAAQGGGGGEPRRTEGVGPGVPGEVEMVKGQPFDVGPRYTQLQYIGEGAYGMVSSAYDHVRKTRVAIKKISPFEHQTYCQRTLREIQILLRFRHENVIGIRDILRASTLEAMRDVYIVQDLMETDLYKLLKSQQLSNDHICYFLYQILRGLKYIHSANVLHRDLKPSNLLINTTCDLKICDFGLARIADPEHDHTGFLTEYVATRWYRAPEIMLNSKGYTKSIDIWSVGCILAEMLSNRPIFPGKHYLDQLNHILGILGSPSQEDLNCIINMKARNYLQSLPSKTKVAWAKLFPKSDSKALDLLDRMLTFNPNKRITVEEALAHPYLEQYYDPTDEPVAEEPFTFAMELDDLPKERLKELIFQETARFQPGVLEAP
Chain of Mitogen-activated protein kinase; ERK1/ERK2 (Homo sapiens) (P28482 whole entry, looked up): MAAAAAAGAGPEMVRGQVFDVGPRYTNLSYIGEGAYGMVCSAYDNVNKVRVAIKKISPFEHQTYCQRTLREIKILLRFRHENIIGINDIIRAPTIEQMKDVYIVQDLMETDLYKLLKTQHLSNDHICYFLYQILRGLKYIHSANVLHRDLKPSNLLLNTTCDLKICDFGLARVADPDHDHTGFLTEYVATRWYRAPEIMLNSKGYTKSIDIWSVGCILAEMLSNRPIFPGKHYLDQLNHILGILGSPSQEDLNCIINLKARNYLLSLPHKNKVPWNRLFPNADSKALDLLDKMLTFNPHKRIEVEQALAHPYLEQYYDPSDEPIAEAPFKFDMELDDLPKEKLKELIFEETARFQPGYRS

[49] = molecular target: MAP kinase p38 (Homo sapiens) (UniProt O15264+Q15759+Q16539+P53778); assay: Effect on p38 phosphorylation in human HeLa cells at 50 to 200 nM after 24 hrs by Western blot analysis; assay type: cell-based
HeLa [50] = assay: Inhibition of PI3K phosphorylation in human HeLa cells after 24 hrs by Western blot analysis; assay type: cell-based
[51] = molecular target: RAC-alpha serine/threonine-protein kinase (Homo sapiens) (UniProt P31749); assay: Inhibition of AKT phosphorylation in human HeLa cells after 24 hrs by Western blot analysis; assay type: cell-based
Chain of RAC-alpha serine/threonine-protein kinase (Homo sapiens) (P31749 whole entry): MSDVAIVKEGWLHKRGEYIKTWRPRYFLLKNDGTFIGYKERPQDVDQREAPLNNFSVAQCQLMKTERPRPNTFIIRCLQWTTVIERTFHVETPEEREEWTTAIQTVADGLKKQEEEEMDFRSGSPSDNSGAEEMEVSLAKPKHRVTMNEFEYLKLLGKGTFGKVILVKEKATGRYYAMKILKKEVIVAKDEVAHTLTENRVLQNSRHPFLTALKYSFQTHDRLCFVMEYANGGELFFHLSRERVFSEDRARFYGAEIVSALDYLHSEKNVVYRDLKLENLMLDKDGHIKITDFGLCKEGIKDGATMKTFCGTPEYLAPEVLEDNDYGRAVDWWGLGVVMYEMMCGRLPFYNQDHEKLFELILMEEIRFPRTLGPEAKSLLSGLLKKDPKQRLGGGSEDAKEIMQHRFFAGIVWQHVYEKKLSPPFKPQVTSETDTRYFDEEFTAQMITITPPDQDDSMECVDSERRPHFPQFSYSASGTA

[52] = molecular target: Serine/threonine-protein kinase mTOR (Homo sapiens) (UniProt P42345); assay: Inhibition of mTOR phosphorylation in human HeLa cells after 24 hrs by Western blot analysis; assay type: cell-based
[53] = molecular target: Ribosomal protein S6 kinase (Homo sapiens) (UniProt P51812+Q9UBS0+O75676+Q15349+O75582+P23443+Q9UK32+Q15418); assay: Inhibition of p70S6K phosphorylation in human HeLa cells after 24 hrs by Western blot analysis; assay type: cell-based

C[C@]12CC[C@H](O[C@@H]3C[C@H](CO)[C@@H](O)[C@H](O)[C@H]3O)C[C@@H]1CC[C@@H]1[C@@H]2CC[C@]2(C)[C@@H](c3ccc(=O)oc3)[C@@H](O)C[C@]12O
Activity (HeLa [1]): Active | IC50 (HeLa [2]): 546 nM | IC50 (HeLa [3]): 158 nM | IC50 (MCF7 [4]): 1020 nM | IC50 (MCF7 [5]): 239 nM | IC50 (HepG2 [6]): 1410 nM | IC50 (HepG2 [7]): 221 nM | Activity (L02): Non-Toxic | Activity (HeLa [8]): Active | Activity (HeLa [9]): Active | Activity (HeLa [10]): Active | Activity (HeLa [11]): Active | Activity (HeLa [12]): Active | Activity (HeLa [13]): Active | Activity (HeLa [14]): Active | Activity (HeLa [15]): Active | Activity (HeLa [16]): Active | Activity (HeLa [17]): Active | Activity (HeLa [18]): Active | viability at 0.1 µM (HeLa [19]): 82.5% | Activity (HeLa [20]): 10.2% | Activity (HeLa [21]): 7.28% | Activity (HeLa [22]): 0.062% | viability at 0.2 µM (HeLa [23]): 52.9% | Activity (HeLa [24]): 38.3% | Activity (HeLa [25]): 8.67% | Activity (HeLa [26]): 0.1% | viability at 0.5 µM (HeLa [27]): 46.9% | Activity (HeLa [28]): 36% | Activity (HeLa [29]): 16.6% | Activity (HeLa [30]): 0.56% | Activity (HeLa [31]): 73% | Activity (HeLa [32]): Active | inhibition (HeLa [33]): Active | inhibition (HeLa [34]): Active | inhibition (HeLa [35]): Active | inhibition (HeLa [36]): Active | Activity (HeLa [37]): Active | Activity (HeLa [38]): Active | Activity (HeLa [39]): Active | Activity (HeLa [40]): Active | Activity (HeLa [41]): Active | Activity (HeLa [42]): Active | Activity (HeLa [43]): Active | Activity (HeLa [44]): Active | Activity (HeLa [45]): Active | Activity (HeLa [46]): Active | Activity [47]: Active | inhibition [48]: Active | Activity [49]: inactive | inhibition (HeLa [50]): Dose-dependent effect | inhibition [51]: Dose-dependent effect | inhibition [52]: Dose-dependent effect | inhibition [53]: Dose-dependent effect

C[C@]12CC[C@H](O)C[C@H]1CC[C@@H]1[C@@H]2CC[C@]2(C)[C@@H](c3ccc(=O)oc3)CC[C@]12O [BUFALIN]
IC50 (HeLa [2]): 594 nM | IC50 (HeLa [3]): 280 nM | viability at 0.2 µM (HeLa [23]): 53.3% | Activity (HeLa [24]): 30.9% | Activity (HeLa [25]): 13.9% | Activity (HeLa [26]): 1.86%
